target: T1, AAK1 (Homo sapiens, UniProt Q2M2I8); test: P81 filter plate assay; format: biochemical; conditions: full-length human AAK1, Mu2 substrate, 33P-ATP
T1 construct: NP_055726.2
Experimental: Compounds were serially diluted into a Labcyte LDV plate (Labcyte, cat#LP-0200) using a Mutiprobe (PerkinElmer) and Biomek FX (Beckman Coulter) so that the highest compound concentration was at 96 μM. Compounds were then pinged (75 nL per well) into a Greiner 384-well reaction plate (Greiner, #781076) using an ECHO 550 Liquid Handler (Labcyte). A total of 12 μl reaction buffer (IMAP buffer containing Tween and DTT, from Molecular Devices) was then added to each well of columns 1 and 13 for the negative controls and 12 μl of 2× AAK1 (0.2 nM full-length human protein, NCBI accession no. NP_055726.2) was added to the remaining wells. Enzyme was then pre-incubated with compound for 10 minutes at RT. Reactions were initiated upon Minitrak (PerkinElmer) addition of 12 μl substrate mix containing 2× Mu2 (0.2 μM, full length human protein), 2× cold ATP (2 μM), and 1.3 μCi of hot ^33P-ATP. […] proceeded for one hour at RT. Meanwhile, Millipore 384-well P81 filter plates (Millipore, catalog #MZPHNOW10) were placed on a plate washer (Zoom ZW, from Titertek) and pre-wet with 50 μl 1% phosphoric acid. Kinase reactions were then stopped upon addition of 24 μl of 2% phosphoric acid to each well and the Minitrak was then used to transfer 40 μl from each well into the pre-wet Millipore 384-well P81 filter plates. Reaction mixtures were incubated for 10 minutes at RT in the P81 plates, followed by washing five times with 100 μl/well of 1% phosphoric acid using the Zoom filter washer. The bottom of each filter plate was sealed followed by addition of 20 μl Microscint 40 to each well, sealing the top of the plates with Flashplate cover, and then waiting one hour until reading on the TopCount (PerkinElmer).

T1 sequence (Q2M2I8 1-863 isoform Q2M2I8-2): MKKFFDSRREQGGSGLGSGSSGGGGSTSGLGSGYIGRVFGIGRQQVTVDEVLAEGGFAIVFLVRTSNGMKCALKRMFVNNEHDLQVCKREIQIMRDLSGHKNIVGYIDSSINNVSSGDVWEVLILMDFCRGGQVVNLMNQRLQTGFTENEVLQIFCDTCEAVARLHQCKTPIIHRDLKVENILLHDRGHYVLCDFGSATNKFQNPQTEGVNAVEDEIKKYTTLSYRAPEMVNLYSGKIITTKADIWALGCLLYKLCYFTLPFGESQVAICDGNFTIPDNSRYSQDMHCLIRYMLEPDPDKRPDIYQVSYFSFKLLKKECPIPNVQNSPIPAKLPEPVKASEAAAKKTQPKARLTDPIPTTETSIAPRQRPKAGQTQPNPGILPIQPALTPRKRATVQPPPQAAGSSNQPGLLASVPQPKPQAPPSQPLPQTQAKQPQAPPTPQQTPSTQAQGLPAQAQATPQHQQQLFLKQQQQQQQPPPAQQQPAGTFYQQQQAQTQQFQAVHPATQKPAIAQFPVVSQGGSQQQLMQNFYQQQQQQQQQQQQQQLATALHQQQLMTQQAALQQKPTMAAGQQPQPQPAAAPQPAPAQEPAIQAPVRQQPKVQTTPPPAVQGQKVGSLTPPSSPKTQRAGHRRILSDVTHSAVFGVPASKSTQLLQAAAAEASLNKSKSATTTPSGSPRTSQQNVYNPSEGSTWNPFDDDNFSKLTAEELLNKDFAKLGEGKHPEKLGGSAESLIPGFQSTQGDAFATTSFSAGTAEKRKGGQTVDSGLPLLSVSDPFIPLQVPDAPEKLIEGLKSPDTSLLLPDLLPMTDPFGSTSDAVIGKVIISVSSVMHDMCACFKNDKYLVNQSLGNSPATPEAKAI

Q: `COc1ncccc1-c1cnn2ccc(N3CCN(C(=O)[C@H](N)CC(C)C)CC3)nc12` [(R)-2-amino-1-(4-(3-(2-methoxypyridin-3-yl)pyrazolo[1,5-a]pyrimidin-5-yl)piperazin-1-yl)-4-methylpentan-1-one] was tested. Which IC50 did it give?
A: The IC50 was at most 100 nM.

Q: Which IC50 does the source give for `COc1ncc(C)cc1-c1cnn2ccc(N3CC[C@H](N(C)C(=O)OC(C)C)C3)nc12` [(S)-isopropyl (1-(3-(2-methoxy-5-methylpyridin-3-yl)pyrazolo[1,5-a]pyrimidin-5-yl)pyrrolidin-3-yl)(methyl)carbamate] here?
A: Its IC50 is at most 10 nM.

Q: For `Cc1ccc(-c2cnn3ccc(N4CCN(C(=O)OC(C)C)CC4)nc23)c(=O)n1C` [isopropyl 4-(3-(1,6-dimethyl-2-oxo-1,2-dihydropyridin-3-yl)pyrazolo[1,5-a]pyrimidin-5-yl)piperazine-1-carboxylate], which IC50 is on record?
A: Its IC50 is at most 10 nM.

Q: `CC(C)C[C@H](N)C(=O)N1CCN(c2ccn3ncc(Cl)c3n2)CC1` [(S)-2-amino-1-(4-(3-chloropyrazolo[1,5-a]pyrimidin-5-yl)piperazin-1-yl)-4-methylpentan-1-one] was tested. Which IC50 did it give?
A: The IC50 was at most 100 nM.

Q: How did the IC50 turn out when `CSc1ncccc1-c1cnn2ccc(N3CCN(C(=O)OC(C)C)CC3)nc12` [isopropyl 4-(3-(2-(methylthio)pyridin-3-yl)pyrazolo[1,5-a]pyrimidin-5-yl)piperazine-1-carboxylate] was run?
A: Its IC50 is at most 100 nM.

Q: With `COc1ncccc1-c1cnn2ccc(N3CCN(C(=O)OCCN(C)C)CC3)nc12` [2-(dimethylamino)ethyl 4-(3-(2-methoxypyridin-3-yl)pyrazolo[1,5-a]pyrimidin-5-yl)piperazine-1-carboxylate] as the molecule, how does the IC50 read?
A: The IC50 was at most 100 nM.

Q: How did the IC50 turn out when `COc1c(F)cccc1-c1cnn2ccc(N3CCN(C(=O)OC(C)C)CC3)nc12` [isopropyl 4-(3-(3-fluoro-2-methoxyphenyl)pyrazolo[1,5-a]pyrimidin-5-yl)piperazine-1-carboxylate] was run?
A: Its IC50 is at most 100 nM.

Q: How did the IC50 turn out when `COc1ncc(F)cc1-c1cnn2ccc(N3CC[C@H](N(C)C(=O)OC(C)C)C3)nc12` [(S)-isopropyl (1-(3-(5-fluoro-2-methoxypyridin-3-yl)pyrazolo[1,5-a]pyrimidin-5-yl)pyrrolidin-3-yl)(methyl)carbamate] was run?
A: The IC50 was at most 100 nM.

Q: How did the IC50 turn out when `CCO/C=C/c1cnn2ccc(N3CCN(C(=O)OC(C)C)CC3)nc12` [(E)-isopropyl 4-(3-(2-ethoxyvinyl)pyrazolo[1,5-a]pyrimidin-5-yl)piperazine-1-carboxylate] was run?
A: The IC50 was at most 100 nM.

Q: With `COc1nc(C)ccc1-c1cnn2ccc(NCCCOC(C)(C)C)nc12` [N-(3-(tert-butoxy)propyl)-3-(2-methoxy-6-methylpyridin-3-yl)pyrazolo[1,5-a]pyrimidin-5-amine] as the molecule, how does the IC50 read?
A: The IC50 was at most 10 nM.

Q: How did the IC50 turn out when `CCOC(=O)N1CCN(c2ccn3ncc(-c4ccc(OC)nc4OC)c3n2)CC1` [ethyl 4-(3-(2,6-dimethoxypyridin-3-yl)pyrazolo[1,5-a]pyrimidin-5-yl)piperazine-1-carboxylate] was run?
A: Its IC50 is at most 10 nM.

Q: With `COc1ncccc1-c1cnn2ccc(N3CCN4C(=O)N(CC(C)C)CC4C3)nc12` (stereo not drawn) [2-isobutyl-7-(3-(2-methoxypyridin-3-yl)pyrazolo[1,5-a]pyrimidin-5-yl)hexahydroimidazo[1,5-a]pyrazin-3(2H)-one] as the molecule, how does the IC50 read?
A: The IC50 was at most 10 nM.

Q: With `CC(C)OC(=O)N1CCN(c2ccn3ncc(-c4cccnc4N)c3n2)CC1` [isopropyl 4-(3-(2-aminopyridin-3-yl)pyrazolo[1,5-a]pyrimidin-5-yl)piperazine-1-carboxylate] as the molecule, how does the IC50 read?
A: Its IC50 is at most 100 nM.

Q: For `COc1cccnc1-c1cnn2ccc(N3CCN(C(=O)OC(C)C)CC3)nc12` [isopropyl 4-(3-(3-methoxypyridin-2-yl)pyrazolo[1,5-a]pyrimidin-5-yl)piperazine-1-carboxylate], which IC50 is on record?
A: Its IC50 is at most 1000 nM.

Q: Which IC50 does the source give for `COc1ncccc1-c1cnn2ccc(N3CCN(C(=O)CC(C)C)CC3)nc12` [1-(4-(3-(2-methoxypyridin-3-yl)pyrazolo[1,5-a]pyrimidin-5-yl)piperazin-1-yl)-3-methylbutan-1-one] here?
A: Its IC50 is at most 10 nM.

Q: How did the IC50 turn out when `CN(C(=O)OC(C)(C)C)[C@H]1CCN(c2ccn3ncc(-c4ccccn4)c3n2)C1` [(S)-tert-butyl methyl(1-(3-(pyridin-2-yl)pyrazolo[1,5-a]pyrimidin-5-yl)pyrrolidin-3-yl)carbamate] was run?
A: Its IC50 is at most 1000 nM.

Q: For `COc1ncccc1-c1cnn2ccc(NCCOC(C)(C)C)nc12` [N-(2-(tert-butoxy)ethyl)-3-(2-methoxypyridin-3-yl)pyrazolo[1,5-a]pyrimidin-5-amine], which IC50 is on record?
A: The IC50 was at most 10 nM.

Q: For `CCOc1ncccc1-c1cnn2ccc(N3CCN(C(=O)OCCOC)CC3)nc12` [2-methoxyethyl 4-(3-(2-ethoxypyridin-3-yl)pyrazolo[1,5-a]pyrimidin-5-yl)piperazine-1-carboxylate], which IC50 is on record?
A: Its IC50 is at most 10 nM.

Q: How did the IC50 turn out when `CC(C)OC(=O)N1CCN(c2ccn3ncc(-c4cccc5nccn45)c3n2)CC1` [isopropyl 4-(3-(imidazo[1,2-a]pyridin-5-yl)pyrazolo[1,5-a]pyrimidin-5-yl)piperazine-1-carboxylate] was run?
A: Its IC50 is at most 100 nM.

Q: `CC(C)C[C@H](N)C(=O)N1CCN(c2ccn3ncc(F)c3n2)CC1` [(S)-2-amino-1-(4-(3-fluoropyrazolo[1,5-a]pyrimidin-5-yl)piperazin-1-yl)-4-methylpentan-1-one] was tested. Which IC50 did it give?
A: The IC50 was at most 1000 nM.

Q: Which IC50 does the source give for `COc1ncccc1-c1cnn2ccc(N(C)CCCOC(C)(C)C)nc12` [N-(3-(tert-butoxy)propyl)-3-(2-methoxypyridin-3-yl)-N-methylpyrazolo[1,5-a]pyrimidin-5-amine] here?
A: Its IC50 is at most 100 nM.

Q: With `COCCOC(=O)N1CCN(c2ccn3ncc(-c4cccnc4OC)c3n2)CC1` [2-methoxyethyl 4-(3-(2-methoxypyridin-3-yl)pyrazolo[1,5-a]pyrimidin-5-yl)piperazine-1-carboxylate] as the molecule, how does the IC50 read?
A: The IC50 was at most 10 nM.

Q: Which IC50 does the source give for `COc1cnccc1-c1cnn2ccc(N3CCN(C(=O)OC(C)C)CC3)nc12` [isopropyl 4-(3-(3-methoxypyridin-4-yl)pyrazolo[1,5-a]pyrimidin-5-yl)piperazine-1-carboxylate] here?
A: Its IC50 is at most 10 nM.

Q: Which IC50 does the source give for `CC(C)OC(=O)N1CCN(c2ccn3ncc(Cl)c3n2)CC1` [isopropyl 4-(3-chloropyrazolo[1,5-a]pyrimidin-5-yl)piperazine-1-carboxylate] here?
A: Its IC50 is at most 100 nM.

Q: For `COc1ccccc1-c1cnn2ccc(NC[C@@H]3CCCN3C(=O)NC(C)(C)C)nc12` [(S)-N-(tert-butyl)-2-(((3-(2-methoxyphenyl)pyrazolo[1,5-a]pyrimidin-5-yl)amino)methyl)pyrrolidine-1-carboxamide], which IC50 is on record?
A: The IC50 was at most 10 nM.

Q: How did the IC50 turn out when `CC(C)OC(=O)N(C)[C@H]1CCN(c2ccn3ncc(-c4ccccn4)c3n2)C1` [(S)-isopropyl methyl(1-(3-(pyridin-2-yl)pyrazolo[1,5-a]pyrimidin-5-yl)pyrrolidin-3-yl)carbamate] was run?
A: The IC50 was at most 1000 nM.

Q: Which IC50 does the source give for `CC(C)OC(=O)N1CCN(c2ccn3ncc(-c4ccnnc4)c3n2)CC1` [isopropyl 4-(3-(pyridazin-4-yl)pyrazolo[1,5-a]pyrimidin-5-yl)piperazine-1-carboxylate] here?
A: The IC50 was at most 1000 nM.

Q: `COCCOc1ncccc1-c1cnn2ccc(N3CCN(C(=O)OC(C)C)CC3)nc12` [isopropyl 4-(3-(2-(2-methoxyethoxy)pyridin-3-yl)pyrazolo[1,5-a]pyrimidin-5-yl)piperazine-1-carboxylate] was tested. Which IC50 did it give?
A: The IC50 was at most 100 nM.

Q: Which IC50 does the source give for `COCCCOC(=O)N1CCN(c2ccn3ncc(-c4cccnc4OC)c3n2)CC1` [3-methoxypropyl 4-(3-(2-methoxypyridin-3-yl)pyrazolo[1,5-a]pyrimidin-5-yl)piperazine-1-carboxylate] here?
A: The IC50 was at most 10 nM.

Q: For `CC(C)OC(=O)N1CCN(c2ccn3ncc(-c4cccnc4F)c3n2)CC1` [isopropyl 4-(3-(2-fluoropyridin-3-yl)pyrazolo[1,5-a]pyrimidin-5-yl)piperazine-1-carboxylate], which IC50 is on record?
A: Its IC50 is at most 10 nM.

Q: For `COc1ncccc1-c1cnn2ccc(N3CCN(C(=O)OCCOC(C)(C)C)CC3)nc12` [2-(tert-butoxy)ethyl 4-(3-(2-methoxypyridin-3-yl)pyrazolo[1,5-a]pyrimidin-5-yl)piperazine-1-carboxylate], which IC50 is on record?
A: The IC50 was at most 10 nM.

Q: With `FC(F)(F)CN1CCN(c2ccn3ncc(Br)c3n2)CC1` [3-bromo-5-(4-(2,2,2-trifluoroethyl)piperazin-1-yl)pyrazolo[1,5-a]pyrimidine] as the molecule, how does the IC50 read?
A: The IC50 was at most 100 nM.

Q: How did the IC50 turn out when `Cc1ccc(-c2cnn3ccc(N4CC[C@H](N(C)C(=O)OC(C)C)C4)nc23)c(=O)n1C` [(S)-isopropyl (1-(3-(1,6-dimethyl-2-oxo-1,2-dihydropyridin-3-yl)pyrazolo[1,5-a]pyrimidin-5-yl)pyrrolidin-3-yl)(methyl)carbamate] was run?
A: Its IC50 is at most 1000 nM.

Q: For `CCOCCOC(=O)N1CCN(c2ccn3ncc(-c4cccnc4OC)c3n2)CC1` [2-ethoxyethyl 4-(3-(2-methoxypyridin-3-yl)pyrazolo[1,5-a]pyrimidin-5-yl)piperazine-1-carboxylate], which IC50 is on record?
A: Its IC50 is at most 100 nM.

Q: `COc1ncccc1-c1cnn2ccc(N3CCN(C(=O)C(C)(C)N)CC3)nc12` [2-amino-1-(4-(3-(2-methoxypyridin-3-yl)pyrazolo[1,5-a]pyrimidin-5-yl)piperazin-1-yl)-2-methylpropan-1-one] was tested. Which IC50 did it give?
A: The IC50 was at most 100 nM.

Q: With `COCCOCCOC(=O)N1CCN(c2ccn3ncc(-c4cccnc4OC)c3n2)CC1` [2-(2-methoxyethoxy)ethyl 4-(3-(2-methoxypyridin-3-yl)pyrazolo[1,5-a]pyrimidin-5-yl)piperazine-1-carboxylate] as the molecule, how does the IC50 read?
A: The IC50 was at most 100 nM.
